Assay results from ChEMBL document CHEMBL1148821, “4-anilino-5-carboxamido-2-pyridone derivatives as noncompetitive inhibitors of mitogen-activated protein kinase kinase” (J Med Chem, 2007).

Experiments:
[1] = Toxicity in colon 26 tumor-bearing CD2F1 mouse assessed as lethality at 100 mg/kg; assay type: organism-based; set-up: dose 100 mg/kg; conditions: in vivo, read-out: Activity
[2] = Toxicity in colon 26 tumor-bearing CD2F1 mouse assessed as lethality at 200 mg/kg; assay type: organism-based; set-up: dose 200 mg/kg; conditions: in vivo, read-out: Activity

Compound `Cn1cc(C(N)=O)c(Nc2ccc(I)cc2F)cc1=O` has a mortality [1] of 40% and a mortality [2] of 100%.
